Data: patent publication US12590091B2, “1H-pyrrolo[3,2-C]pyridine and 1H-pyrrolo[2,3-C]pyridine derivatives as TLR9 inhibitors for the treatment of fibrosis” (BRISTOL-MYERS SQUIBB COMPANY, priority 2020, dated 2026)

Target: T1, human TLR9 (Homo sapiens, UniProt Q9NR96)
T1 construct: host or cells: HEK-Blue cells
T1 sequence (Q9NR96 26-1032): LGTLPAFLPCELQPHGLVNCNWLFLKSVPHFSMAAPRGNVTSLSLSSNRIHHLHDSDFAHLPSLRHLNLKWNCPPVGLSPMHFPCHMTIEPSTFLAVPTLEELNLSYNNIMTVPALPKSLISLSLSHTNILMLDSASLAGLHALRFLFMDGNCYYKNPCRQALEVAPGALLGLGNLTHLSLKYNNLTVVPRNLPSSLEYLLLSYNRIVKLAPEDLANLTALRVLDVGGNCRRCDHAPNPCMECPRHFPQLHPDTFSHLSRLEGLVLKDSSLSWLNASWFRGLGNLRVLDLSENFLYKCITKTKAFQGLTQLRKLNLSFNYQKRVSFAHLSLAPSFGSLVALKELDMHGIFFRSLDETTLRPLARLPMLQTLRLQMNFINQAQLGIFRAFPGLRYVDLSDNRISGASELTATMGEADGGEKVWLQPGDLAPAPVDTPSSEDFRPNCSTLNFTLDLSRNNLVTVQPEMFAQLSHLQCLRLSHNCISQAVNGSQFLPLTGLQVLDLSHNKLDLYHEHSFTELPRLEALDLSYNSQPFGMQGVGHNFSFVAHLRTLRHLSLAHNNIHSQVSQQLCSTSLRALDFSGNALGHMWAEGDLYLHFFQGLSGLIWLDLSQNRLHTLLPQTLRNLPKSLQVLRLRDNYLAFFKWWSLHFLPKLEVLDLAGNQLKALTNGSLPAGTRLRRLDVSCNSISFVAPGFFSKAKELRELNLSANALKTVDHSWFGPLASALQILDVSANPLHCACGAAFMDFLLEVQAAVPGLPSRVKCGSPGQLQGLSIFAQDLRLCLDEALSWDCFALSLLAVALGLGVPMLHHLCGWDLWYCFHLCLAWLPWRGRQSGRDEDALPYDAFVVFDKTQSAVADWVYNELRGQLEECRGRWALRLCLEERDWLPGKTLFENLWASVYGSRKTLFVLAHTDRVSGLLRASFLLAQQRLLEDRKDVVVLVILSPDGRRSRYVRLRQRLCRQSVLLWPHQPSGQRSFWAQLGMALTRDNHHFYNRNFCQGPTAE
Experiment: TLR9 inhibition reporter assay (HEK-Blue cells, SEAP reporter)
Format: cell-based
Conditions: HEK-Blue cells overexpressing human TLR9, stimulated with ODN2006 5 nM, 22 hour incubation
Protocol: TLR7/8/9 Inhibition Reporter Assays
HEK-Blue™-cells (Invivogen) overexpressing human TLR7, TLR8 or TLR9 receptors were used for screening inhibitors of these receptors using an inducible SEAP (secreted embryonic alkaline phosphatase) reporter gene under the control of the IFN-β minimal promoter fused to five NF-κB and AP-1-binding sites. Briefly, cells are seeded into Greiner 384 well plates (15000 cells per well for TLR7, 20,000 for TLR8 and 25,000 for TLR9) and then treated with test compounds in DMSO to yield a final dose response concentration range of 0.05 nM-50 μM. […] After a 22 hour incubation at 37° C., 5% CO2, SEAP levels are determined with the addition of HEK-Blue™ Detection reagent (Invivogen), a cell culture medium that allows for detection of SEAP, according to manufacturer's specifications. The percent inhibition is determined as the % reduction in the HEK-Blue signal present in wells treated with agonist plus DMSO alone compared to wells treated with a known inhibitor.

| Structure (SMILES) | IC50 [nM] |
| --- | --- |
| Cc1nc(-c2cc(F)c(N3CCN(CC(C)C)CC3)c(F)c2)cc2c1cc(-c1ccc(S(C)(=O)=O)cc1)n2C [Example 84, 6-(3,5-difluoro-4-(4-isobutylpiperazin-1-yl)phenyl)-1,4-dimethyl-2-(4-(methylsulfonyl)phenyl)-1H-pyrrolo[3,2-c]pyridine] | 626 |
| Cc1nc(-c2cccc(N3CCN(C(C)C)CC3)c2)cc2c1cc(-c1ccc(S(C)(=O)=O)cc1)n2C [Example 67, 6-(3-(4-isopropylpiperazin-1-yl)phenyl)-1,4-dimethyl-2-(4-(methylsulfonyl)phenyl)-1H-pyrrolo[3,2-c]pyridine] | 25 |
| Cc1nc(-c2ccc(N3CCS(=O)(=O)CC3)cc2)cc2c1cc(-c1ccc(S(C)(=O)=O)cc1)n2C [Example 85, 4-(4-(1,4-dimethyl-2-(4-(methylsulfonyl)phenyl)-1H-pyrrolo[3,2-c]pyridin-6-yl)phenyl)thiomorpholine 1,1-dioxide] | 2400 |
| Cc1nc(-c2ccc(N3CCN(C(C)C)CC3)cc2)cc2c1cc(-c1ccc(S(=O)(=O)C3CC3)cc1)n2C [Example 42, 2-(4-(Cyclopropylsulfonyl)phenyl)-6-(4-(4-isopropylpiperazin-1-yl)phenyl)-1,4-dimethyl-1H-pyrrolo[3,2-c]pyridine] | 346 |
| Cc1nc(-c2ccc(N3CCN(CC(C)C)CC3)cc2)cc2c1cc(-c1cccc(S(C)(=O)=O)c1)n2C [Example 40, 6-(4-(4-isobutylpiperazin-1-yl)phenyl)-1,4-dimethyl-2-(3-(methylsulfonyl)phenyl)-1H-pyrrolo[3,2-c]pyridine] | 98 |
| COCCN1CCN(c2ccc(-c3cc4c(cc(-c5ccc(S(C)(=O)=O)cc5)n4C)c(C)n3)cc2F)CC1 [Example 66, 6-(3-fluoro-4-(4-(2-methoxyethyl)piperazin-1-yl)phenyl)-1,4-dimethyl-2-(4-(methylsulfonyl)phenyl)-1H-pyrrolo[3,2-c]pyridine] | 136 |
| COCCN1CCN(c2ccc(-c3cc4c(cc(-c5ccc(S(=O)(=O)N(C)C)cc5)n4C)c(C)n3)cc2)CC1 [Example 51, 4-(6-(4-(4-(2-methoxyethyl)piperazin-1-yl)phenyl)-1,4-dimethyl-1H-pyrrolo[3,2-c]pyridin-2-yl)-N,N-dimethylbenzenesulfonamide] | 44 |
| Cc1nc(-c2ccc(N3CCN4CCCC4C3)cc2)cc2c1cc(-c1ccc(S(C)(=O)=O)cc1)n2C (stereo not drawn) [Example 63, 6-(4-(hexahydropyrrolo[1,2-a]pyrazin-2(1H)-yl)phenyl)-1,4-dimethyl-2-(4-(methylsulfonyl)phenyl)-1H-pyrrolo[3,2-c]pyridine] | 146 |
| Cc1nc(-c2ccc(N3CCN(CCc4ccc(I)cc4)CC3)cc2)cc2c1cc(-c1ccc(S(C)(=O)=O)cc1)n2C [Example 110, 6-(4-(4-(4-iodophenethyl)piperazin-1-yl)phenyl)-1,4-dimethyl-2-(4-(methylsulfonyl)phenyl)-1H-pyrrolo[3,2-c]pyridine] | 58 |
| Cc1nc(-c2ccc(N3CC4CCC(C3)N4CC(C)C)cc2)cc2c1cc(-c1ccc(S(C)(=O)=O)cc1)n2C [Example 73, 6-(4-(8-isobutyl-3,8-diazabicyclo[3.2.1]octan-3-yl)phenyl)-1,4-dimethyl-2-(4-(methylsulfonyl)phenyl)-1H-pyrrolo[3,2-c]pyridine] | 359 |
| Cc1nc(-c2ccc(N3CC4CCC(C3)N4C(C)C)cc2)cc2c1cc(-c1ccc(S(C)(=O)=O)cc1)n2C [Example 64, 6-(4-(8-isopropyl-3,8-diazabicyclo[3.2.1]octan-3-yl)phenyl)-1,4-dimethyl-2-(4-(methylsulfonyl)phenyl)-1H-pyrrolo[3,2-c]pyridine] | 6.4 |
| COc1ccc(-c2cc3cnc(-c4ccc(N5CCN(C(C)=O)CC5)cc4)cc3n2C)cc1OC [Example 30, 1-(4-(4-(2-(3,4-dimethoxyphenyl)-1-methyl-1H-pyrrolo[3,2-c]pyridin-6-yl)phenyl)piperazin-1-yl) ethan-1-one] | 579 |
| Cc1nc(-c2cc(F)c(N3CCN(C4CCOCC4)CC3)cc2F)cc2c1cc(-c1ccc(S(C)(=O)=O)cc1)n2C [Example 81, 6-(2,5-difluoro-4-(4-(tetrahydro-2H-pyran-4-yl)piperazin-1-yl)phenyl)-1,4-dimethyl-2-(4-(methylsulfonyl)phenyl)-1H-pyrrolo[3,2-c]pyridine] | 670 |
| CC(C)N1CCN(Cc2ccc(-c3cc4c(cc(-c5ccc(S(C)(=O)=O)cc5)n4C)c(N4CCOCC4)n3)cc2)CC1 [Example 127, 4-(6-(4-((4-isopropylpiperazin-1-yl)methyl)phenyl)-1-methyl-2-(4-(methylsulfonyl)phenyl)-1H-pyrrolo[3,2-c]pyridin-4-yl)morpholine] | 422 |
| Cc1nc(-c2ccc(N3CCN(C(C)C)CC3)cc2)cc2c1cc(-c1ccc(S(=O)(=O)N(C)C)cc1)n2C [Example 49, 4-(6-(4-(4-isopropylpiperazin-1-yl)phenyl)-1,4-dimethyl-1H-pyrrolo[3,2-c]pyridin-2-yl)-N,N-dimethylbenzenesulfonamide] | 6760 |
| Cc1nc(-c2ccc(N3CCN(Cc4ccc(Br)cc4)CC3)cc2)cc2c1cc(-c1ccc(S(C)(=O)=O)cc1)n2C [Example 113, 6-(4-(4-(4-bromobenzyl)piperazin-1-yl)phenyl)-1,4-dimethyl-2-(4-(methylsulfonyl)phenyl)-1H-pyrrolo[3,2-c]pyridine] | 153 |
| Cc1nc(-c2ccc(N3CCN(CCc4ccc(Br)cc4)CC3)cc2)cc2c1cc(-c1ccc(S(C)(=O)=O)cc1)n2C [Example 111, 6-(4-(4-(4-bromophenethyl)piperazin-1-yl)phenyl)-1,4-dimethyl-2-(4-(methylsulfonyl)phenyl)-1H-pyrrolo[3,2-c]pyridine] | 113 |
| Cc1nc(-c2ccc(N3CCN(C(C)C)CC3)cc2)cc2c1cc(-c1cccc(S(C)(=O)=O)c1)n2C [Example 39, 6-(4-(4-isopropylpiperazin-1-yl)phenyl)-1,4-dimethyl-2-(3-(methylsulfonyl)phenyl)-1H-pyrrolo[3,2-c]pyridine] | 672 |
| Cc1nc(-c2cccc(N3CCN(C4CC4)CC3)c2)cc2c1cc(-c1ccc(S(C)(=O)=O)cc1)n2C [Example 68, 6-(3-(4-cyclopropylpiperazin-1-yl)phenyl)-1,4-dimethyl-2-(4-(methylsulfonyl)phenyl)-1H-pyrrolo[3,2-c]pyridine] | 299 |
| Cc1nc(-c2ccc(N3CCN(C(C)C)CC3)c(F)c2)cc2c1cc(-c1ccc(S(C)(=O)=O)cc1)n2C [Example 12, 6-(3-Fluoro-4-(4-isopropylpiperazin-1-yl)phenyl)-1,4-dimethyl-2-(4-(methylsulfonyl)phenyl)-1H-pyrrolo[3,2-c]pyridine] | 36 |
| Cc1nc(-c2ccc(N3CCN(C4CCOC4)CC3)cc2)cc2c1cc(-c1ccc(S(=O)(=O)N(C)C)cc1)n2C (stereo not drawn) [Example 52, 4-(1,4-dimethyl-6-(4-(4-(tetrahydrofuran-3-yl)piperazin-1-yl)phenyl)-1H-pyrrolo[3,2-c]pyridin-2-yl)-N,N-dimethylbenzenesulfonamide] | 202 |
| Cc1nc(-c2ccc(N3CCN(Cc4ccc(I)cc4)CC3)cc2)cc2c1cc(-c1ccc(S(C)(=O)=O)cc1)n2C [Example 112, 6-(4-(4-(4-iodobenzyl)piperazin-1-yl)phenyl)-1,4-dimethyl-2-(4-(methylsulfonyl)phenyl)-1H-pyrrolo[3,2-c]pyridine] | 87 |
| Cc1nc(-c2ccc(N3CCN(C4CCOCC4)CC3)c(F)c2F)cc2c1cc(-c1ccc(S(C)(=O)=O)cc1)n2C [Example 83, 6-(2,3-difluoro-4-(4-(tetrahydro-2H-pyran-4-yl)piperazin-1-yl)phenyl)-1,4-dimethyl-2-(4-(methylsulfonyl)phenyl)-1H-pyrrolo[3,2-c]pyridine] | 2300 |
| Cc1nc(-c2ccc(C3(O)CC4CCC(C3)N4C(C)C)cc2F)cc2c1cc(-c1ccc(S(C)(=O)=O)cc1)n2C [Example 103, (1R,3r,5S)-3-(4-(1,4-dimethyl-2-(4-(methylsulfonyl)phenyl)-1H-pyrrolo[3,2-c]pyridin-6-yl)-3-fluorophenyl)-8-isopropyl-8-azabicyclo[3.2.1]octan-3-ol] | 296 |
